Patent US20040259912A1, “Benzine derivatives, process for preparing the same and use thereof” (priority 2001, published 2004)

What was measured:
ICR male mice [1] = experiment: Measurement of mouse bladder volume; type: in vivo; conditions: for Bladder volume / Bladder volume (mL): sc, 3 hours after administration, urethane anesthesia, Mean ± S.E.; for bladder volume of the mouse (result in words): subcutaneous, mouse anesthetized with urethane
Procedure: Measurement of Mouse Bladder Volume
Five weeks old ICR male mice were used in this test. At 3 hours after the subcutaneous administration of the drug, the abdomen of mouse was cut open under urethane anesthesia (30 mg/mouse) to expose the bladder. Physiological salt solution was infused into the bladder at the rate of 0.05 mL/minutes to check excretion reflection. All of the urine was drained off, and the physiological salt solution was infused again, and then, the bladder volume of mouse was calculated by measuring the time to urination.

[2] = tested on: RVR1/CHO and HVR1/CHO strains (CHO-K1 cells expressing rat VR1 / human VR1); conditions: in the presence of 1 μM of the compound; 3 hours reaction, then 20 hours culture with Alama Blue; strain (RVR1/CHO or HVR1/CHO) not specified
Procedure: RVR1/CHO and HVR1/CHO strains were inoculated on 96-well microplates (Corning Coaster) at a concentration of 4×10^4 cells/well, respectively and were cultured for 20 hours. After the culture was removed by suction, 180 μl of Ham's F12 medium (GIBCO BRL) containing 10% fetal calf serum (GIBCO BRL) was added to each well. Next, 20 μl of the assay buffer (Ham's F12 medium (GIBCO BRL), 0.5% BSA and 20 mM HEPES (Dojindo Molecular Technologies, Inc.), pH 7.5) containing a test compound at a final concentration of 1 μM was added to each well and the reaction was carried out in a carbon dioxide incubator for 3 hours. Subsequently, and Alama Blue (Wako Pure Chemical Industries, Ltd.) at a concentration of 25 μl was added to each well, and again cultured for 20 hours. Next, fluorescence was measured at excitation wavelength of 530 nm and fluorescence wavelength of 590 nm using multilabel counter (Wallac-Berthold, Japan), and survival rate of cell was determined.
According to the above-mentioned method, the agonist activity of test compounds was determined.

ICR male mice [3] = conditions: 0.01 mL dropped to the eye; capsaicin (0.3 μg) challenge at 1 hour; stimulating or desensitizing activity not specified
Procedure: Eight of 4-5 weeks old ICR male mice (Japan SLC) were used in a group. 0.01 mL of the drug was added dropwise to the eye, and the time when the mouse continued to close the eye was measured. The stimulation of the drug was evaluated as positive when the time is more than 10 seconds, and as negative when the time is less than 10 seconds. At 1 hour after the initial treatment, a solution of capsaicin (0.3 μg) was added dropwise to the eye to evaluate whether the stimulation is or not, and examined the desensitizing activity of the compound. The stimulating and desensitizing activity of the drug were calculated as a value of ED50. The drug was dissolved in a mixture of 10% ethanol, 20% Tween and 80-70% physiological salt solution.

ICR male mice [4] = conditions: subcutaneous; 55° C. water bath; time measured after 1, 3 and 6 hours
Procedure: Four to five weeks old ICR male mice (Japan SLC) were used in this test. The mouse was put into a retainer, the tail end was dipped into 55° C. water bath, and the time until the tail end rose to the surface was measured. The time was previously measured before the administration of the drug, and the mouse having the time of less than 2 seconds were selected and used in the test. Cut-off time was set to 10 seconds. The drug was administered subcutaneously, and the time was measured after 1, 3 and 6 hours to evaluate the effects of the drug. The drug was dissolved in a mixture of 10% ethanol, 20% Tween and 80-70% physiological salt solution.

For `COC(=O)c1cc(NC(=O)Nc2ccccc2)ccc1OC(c1ccccc1)c1ccccc1` [Example 22, Methyl 5-(anilinocarbonylamino)-2-benzhydryloxybenzoate], the “Bladder volume” value (ICR male mice [1]; 3 mg/kg) was 0.17 ± 0.03 mL, the “Bladder volume (mL)” value (ICR male mice [1]; 10 mg/kg, *p ≦ 0.05 vs. vehicle) was 0.28 ± 0.05* mL and the “Bladder volume (mL)” value (ICR male mice [1]; 100 mg/kg, **p ≦ 0.01 vs. vehicle) was 0.31 ± 0.06** mL. The “bladder volume of the mouse (result in words)” value (ICR male mice [1]) was “increased significantly”.
For `CCC(=O)c1cc(NC(=O)Nc2ccc(OC)c(OC)c2)ccc1OC(c1ccccc1)c1ccccc1` [Example 2, N-[(4-Benzhydryloxy)-3-propionylphenyl]-N′-(3,4-dimethoxyphenyl)urea], the “survival rate of the cells” value [2] was 0%, the ED50 (ICR male mice [3]) was 2.2 µg and the Minimum effective dose (ICR male mice [4]) was 1 mg/kg.
`C=C(C)[C@]12C[C@@H](C)[C@@]34O[C@](Cc5ccccc5)(O[C@@H]1[C@@H]3C=C(COC(=O)Cc1ccc(O)c(OC)c1)C[C@]1(O)C(=O)C(C)=C[C@@H]41)O2` [Resiniferatoxin, resiniferatoxin, reference compound] was tested, and the “Bladder volume” value (ICR male mice [1]; 0.03 mg/kg) was 0.24 ± 0.04 mL, the “Bladder volume (mL)” value (ICR male mice [1]; 0.1 mg/kg, *p ≦ 0.05 vs. vehicle) was 0.39 ± 0.04* mL and the “bladder volume of the mouse (result in words)” value (ICR male mice [1]) was “increased significantly”.
